We go through one compound from patent US20100240746A1, “STEREOISOMERS OF TRICYCLODECAN-9-YL-XANTHOGENATE” (LUMAVITA AG, priority 2007, published 2010).

Assay [1] deals with A431 cells (epithelial cancer cells). As to the kind of experiment: Long-term study, growth of HPV-uninfected control A431 cells over 9 passages. In kind it is cell-based, human. Here is the method: (§1) HPV-31 infected cells (3×10^6) were dispensed into 14.5 cm dishes containing fresh E medium and 1×10^6 cells of mitomycin C-treated 3T3 fibroblast feeders. The dishes were incubated in a CO2 incubator under 5% CO2 at 37° C. in 100% humidity. Human A431 epithelial cancer cells were used as HPV-uninfected negative controls. After 6 hr incubation, the cell culture medium was removed and fresh E medium containing 0.85 g/L NaHCO3 and a test compound at concentrations of 10 and 3.3 μg/mL, or control (interferon γ at 200 IU/mL) were added. For each concentration, 4 dishes were prepared. The dishes were incubated at 37° C. in a CO2 incubator. The culture medium was replaced to new E medium containing each concentration of the test compound or control in every 72 hrs. After seven days, or when untreated cells became confluent, one dish of each group was harvested for DNA/RNA extraction, followed by Southern/Northern Blot analysis; and one dish was trypsinized, cell number were determined and cells were seeded in three new dishes, treated and cultured as described above. This procedure was repeated for 9 passages. During these passages, morphology of cells and cell density were monitored.
(§2) Effect on cell proliferation. Cell numbers in the dishes harvested were determined in a Neubauer hematocytometer. The multiplication factor was determined at every step of passage. The cell number of each culture at the end of the passage was divided by the number of seeded cells at the start of each passage. The end point was reached when keratinocytes treated with a test compound stopped growing. Stop of cell growth was defined as a multiplication factor of no greater than 1.

In assay [2] the target is T1, B. cereus PC-PLC (phosphatidylcholine-specific phospholipase C) (Bacillus cereus, UniProt P09598).
T1 construct: purchased Invitrogen
Description: Inhibition of phosphatidylcholine-specific phospholipase C (Amplex Red PC-PLC assay kit). It is filed as biochemical. The settings on record: 30 min at 37° C., 0.2 U/mL PC-PLC solution, triplicate. Here is the method:
The inhibitory activities of optically active potassium salts of (+)- and (−)-O-exo/C-exo-tricyclo [5.2.1.0^2,6]-dec-9-yl-xanthic acid 1A ((+)- and (−)-enantiomers 1A) against phosphatidylcholine-specific phospholipase C were evaluated, together with D609 and potassium salt of racemic O-exo/C-exo xanthic acid 1A (racemic 1A), using Amplex Red phosphatidylcholine-specific phospholipase C(PC-PLC) assay kit, which was obtained from Invitrogen (Calsbad, Calif.). D609 was obtained from Sigma Aldrich.
An Amplex Red stock solution (˜20 mM), a working reaction buffer, and a horseradish peroxidase stock solution (200 U/mL), a H2O2 working solution (20 mM), a choline oxidate stock solution (20 U/mL), an alkaline phosphatase stock solution (400 U/mL), and a B. cereus PC-PLC stock solution (10 U/mL) were prepared according to the instruction of the assay kit. The stock solution (100 mg/mL) for each test compound was also prepared by dissolving the compound in water 2 hr prior to the start of the experiment.
A working Amplex Red/HRP/lecithin solution was prepared by adding 200 μL of Amplex Red reagent stock solution, 100 μL of HRP stock solution, 200 μL of alkaline phosphatase stock solution, 100 μL of choline oxidase stock solution, and 78 μL of the lecithin solution to […] of the working reaction buffer. PC-PLC solution (0.2 U/mL) was prepared by diluting the PC-PLC stock solution with the working reaction buffer to the desired concentration.
The test compound (25 μL) at a serious of concentrations was pipetted into a 96 well plate. For uninhibited PC-PLC controls and non-PC-PLC controls, 25 μL of water was added. After the addition of 50 μL of the Amplex Red/HRP/lecithin working solution, the reaction was initiated by adding 25 μL of PC-PLC solution to each well. […] After incubated for 30 min at 37° C., the reactions were measured with a fluorescence microplate reader using excitation at 550 nm and emission detection at 590 nm. The fluorescent data obtained were corrected for background fluorescence by subtracting the values obtained from the non-PC-PLC controls.

The subject of assay [3] is HPV-31 specific RNA in HPV-31-infected CIN612 9E keratinocytes. Description: Long-term study, HPV-31 specific RNA (Northern Blot). In kind it is cell-based, human papilloma virus. Here is the method: as §1
Effect on HPV-31 specific DNA and RNA: DNA and RNA were analyzed in Southern and Northern Blot gels for HPV-31 specific sequences. X-ray films were scanned and optical densities of HPV-31 specific DNA and major mRNA species were integrated. Time curves were established by plotting integrated values against number of passages for each treatment dose. The T50 (time required to reduce the level to 50% of control) was determined from the time curves from crossing points of time curves with a line parallel to the x-axis corresponding to 50% of integrals of untreated control sample.

The next assay has as its system actin specific RNA. As to the kind of experiment: Short-term study, effect on control RNA expression. It is filed as cell-based. The settings on record: 0-32 μg/mL, 72 hrs. Here is the method:
Effect on HPV-31 specific DNA and RNA. HPV-31 infected cells (3×10^6) were dispensed into 14.5 cm dishes containing fresh E culture medium and 1×10^6 mitomycin C-treated J2 3T3 fibroblast feeders. After 6 hrs, fresh medium containing 0.85 g/L NaHCO3 and a test compound at a series of concentrations (0, 0.5, 1, 2, 4, 8, 16, and 32 μg/mL) were added. All samples were tested in duplicates at each concentration. After incubation at 37° C. for 72 hrs, the feeder cells were removed with 4 mM EDTA, and DNA and RNA was then isolated. The isolated DNA and RNA were analyzed in Southern and Northern Blot gels for HPV-31 specific sequences. Human A431 epithelial cancer cells were used as HPV-uninfected negative control. X-ray films were scanned and optical densities of HPV-31 specific DNA and major mRNA species were integrated.
Dose response curves were established by plotting integrated values against the concentrations of the test compound.

Assay [4] concerns HPV-31-infected CIN612 9E keratinocytes. As to the kind of experiment: Long-term study, effect on cell proliferation of CIN612 9E cells over 9 passages. It is filed as cell-based, human papilloma virus. Here is the method:
as §1, §2

Entries after “also recorded” stand apart in the source; their conditions may differ. Some results are limits rather than exact numbers.

T1 sequence (P09598 39-283 limits assumed): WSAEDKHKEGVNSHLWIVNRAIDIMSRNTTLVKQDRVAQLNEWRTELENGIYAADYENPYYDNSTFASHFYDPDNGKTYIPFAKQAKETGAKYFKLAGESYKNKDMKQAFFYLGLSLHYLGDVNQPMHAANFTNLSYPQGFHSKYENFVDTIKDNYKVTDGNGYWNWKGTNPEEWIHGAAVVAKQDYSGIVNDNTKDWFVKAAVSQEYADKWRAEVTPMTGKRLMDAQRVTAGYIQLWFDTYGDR

With `S=C(S)OC1CC2CC1C1CCCC21` (single isomer, unassigned; (-)) [(−)-Enantiomer 1A, (−)-O-exo/C-exo-tricyclo[5.2.1.0^2,6]-dec-9-yl-xanthic acid], the values for the cell growth result in assay [1] (3.3 μg/mL), in assay [1] (10 μg/mL) and in assay [1] (overall) were “slight inhibition of cell growth”, “slight inhibition of cell growth” and “only minor effects on cell growth”, respectively. The compound further gave a half-maximal inhibitory concentration (IC50) in assay [2] of 15.9 µM. Moreover, the “T50 RNA” value in assay [3] (3.3 μg/mL) is on record as 3.28 passages; in assay [3] (10 μg/mL, listed as (−)-enantiomer 1A), less than 1 passages; in assay [3] (10 μg/mL, listed as Cmpd 1A), less than 1 passages. In addition, the “HPV-31 specific RNA content” value in assay [3] (3.3 μg/mL or 10 μg/mL) is given as “continuous reductions”. In addition, the mrna remaining at 10 µg/mL in assay [3] (Homo sapiens, Keratinocyte, 10 μg/mL, after 9 passages, read-out: viral RNA remaining) was less than 1%. Moreover, the “expression of the control RNA (actin specific RNA)” value with actin specific RNA was “only affected at the highest concentration of 32 μg/mL”. Besides, in assay [4] (3.3 μg/mL), the growth result was “reduction of the growth rate; also recorded: the cells almost stopped growing after 9 passages”. Further, the cell proliferation result in assay [4] (10 μg/mL) was “significant reduction of cell proliferation”. Further, in assay [4] (10 μg/mL, first five passages), the multiplication factor is on record as 2-2.5.
